Experimental data published in PubChem BioAssay AID328 (DTP/NCI, 2004).
Where “and” joins values, the source holds several entries; their conditions need not be identical. Equal values may be shown once. Toxic doses and inconclusive results are not listed.

Test system: BDF1 mice, P388 leukemia ip, median survival T/C
Experiment: NCI In Vivo Anticancer Drug Screen. Data for tumor model P388 Leukemia (intraperitoneal) in B6D2F1 (BDF1) mice
Conditions: endpoint: median survival time, higher = longer survival
How it was run: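 Each value expresses how treatment altered survival: treated-mouse outcome over vehicle-mouse outcome, both groups bearing the transplanted tumour.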

[1] = dose: 100.0 mg/kg/injection, schedule: Q01DX009 (ip), vehicle: saline with Tween-80
[2] = dose: 100.0 mg/kg/injection, schedule: Q04DX003 (ip), vehicle: saline with Tween-80
[3] = dose: 200.0 mg/kg/injection, schedule: Q01DX009 (ip), vehicle: saline with Tween-80
[4] = dose: 200.0 mg/kg/injection, schedule: Q04DX003 (ip), vehicle: saline with Tween-80
[5] = dose: 400.0 mg/kg/injection, schedule: Q01DX009 (ip), vehicle: saline with Tween-80
[6] = dose: 400.0 mg/kg/injection, schedule: Q04DX003 (ip), vehicle: saline with Tween-80

CC(=O)Nc1ccc2c(c1)Cc1cc(NC=O)ccc1-2
T/C (dose: 0.75 mg/kg/injection, schedule: Q01DX009 (ip), vehicle: Klucel (hydroxypropylcellulose) (HPC)): 89 % of control | T/C (dose: 3.0 mg/kg/injection, schedule: Q01DX009 (ip), vehicle: Klucel (hydroxypropylcellulose) (HPC)): 92 % of control | T/C (dose: 12.5 mg/kg/injection, schedule: Q01DX009 (ip), vehicle: Klucel (hydroxypropylcellulose) (HPC)): 96 % of control | T/C (dose: 100.0 mg/kg/injection, schedule: Q01DX009 (ip), vehicle: Klucel (hydroxypropylcellulose) (HPC)): 91 % of control | T/C (dose: 100.0 mg/kg/injection, schedule: Q04DX003 (ip), vehicle: Klucel (hydroxypropylcellulose) (HPC)): 87 % of control

CCOc1ccc([N+](=O)[O-])cc1CN(CC)CC
T/C (dose: 5.0 mg/kg/injection, schedule: Q01DX009 (ip), vehicle: saline): 104 % of control | T/C (dose: 10.0 mg/kg/injection, schedule: Q01DX009 (ip), vehicle: saline): 95 % of control and 100 % of control | T/C (dose: 20.0 mg/kg/injection, schedule: Q01DX009 (ip), vehicle: saline): 113 % of control

Cc1nc[nH]c1[N+](=O)[O-]
T/C (dose: 25.0 mg/kg/injection, schedule: Q01DX009 (ip), vehicle: saline with Tween-80): 100 % of control | T/C [1]: 86 % of control

CC1=CC(=O)c2c(O)cc(C)c(C(=O)C(Cl)Cl)c2C1=O
T/C (dose: 10.0 mg/kg/injection, schedule: Q01DX009 (ip), vehicle: Klucel (hydroxypropylcellulose) (HPC)): 112 % of control | T/C (dose: 20.0 mg/kg/injection, schedule: Q01DX009 (ip), vehicle: Klucel (hydroxypropylcellulose) (HPC)): 112 % of control

N#CC(C#N)=Cc1ccc2c(c1)CCC2
T/C (dose: 5.0 mg/kg/injection, schedule: Q04DX003 (ip), vehicle: saline with Tween-80): 104 % of control | T/C (dose: 9.5 mg/kg/injection, schedule: Q01DX009 (ip), vehicle: saline with Tween-80): 104 % of control | T/C (dose: 10.0 mg/kg/injection, schedule: Q04DX003 (ip), vehicle: saline with Tween-80): 95 % of control | T/C (dose: 19.0 mg/kg/injection, schedule: Q01DX009 (ip), vehicle: saline with Tween-80): 109 % of control | T/C (dose: 20.0 mg/kg/injection, schedule: Q04DX003 (ip), vehicle: saline with Tween-80): 95 % of control | T/C (dose: 38.0 mg/kg/injection, schedule: Q01DX009 (ip), vehicle: saline with Tween-80): 86 % of control and 100 % of control

COC(=O)c1cc(C(C)=O)ccc1OC(=O)c1ccccc1
T/C [1]: 118 % of control | T/C [2]: 100 % of control | T/C [3]: 104 % of control | T/C [4]: 100 % of control | T/C [5]: 104 % of control | T/C [6]: 100 % of control

C=CCCCCCCCCC(=O)N(C)OC
T/C (dose: 25.0 mg/kg/injection, schedule: Q01DX001 (ip), vehicle: saline with Tween-80): 95 % of control | T/C (dose: 50.0 mg/kg/injection, schedule: Q01DX001 (ip), vehicle: saline with Tween-80): 109 % of control | T/C (dose: 100.0 mg/kg/injection, schedule: Q01DX001 (ip), vehicle: saline with Tween-80): 118 % of control

CCC1NC(=O)C(NC(=O)c2ncccc2O)C(C)OC(=O)C(c2ccccc2)NC(=O)C2CC(=O)CCN2C(=O)C(Cc2ccccc2)N(C)C(=O)C2CCCN2C1=O (centres undefined) (tested in a mixture with another compound)
T/C (dose: 18.75 mg/kg/injection, schedule: Q01DX009 (ip), vehicle: Klucel (hydroxypropylcellulose) (HPC)): 99 % of control | T/C (dose: 37.5 mg/kg/injection, schedule: Q01DX009 (ip), vehicle: Klucel (hydroxypropylcellulose) (HPC)): 105 % of control | T/C (dose: 75.0 mg/kg/injection, schedule: Q01DX009 (ip), vehicle: Klucel (hydroxypropylcellulose) (HPC)): 111 % of control

C=C(C)c1ccc(C)c(C)c1
T/C [1]: 106 % of control | T/C [5]: 122 % of control

O=NN(CCCl)C(=O)Nc1ccc(CCO)cc1
T/C (dose: 0.12 mg/kg/injection, schedule: Q04DX003 (ip), vehicle: saline): 100 % of control | T/C (dose: 0.13 mg/kg/injection, schedule: Q01DX009 (ip), vehicle: Klucel (hydroxypropylcellulose) (HPC)): 112 % of control | T/C (dose: 0.2 mg/kg/injection, schedule: Q01DX009 (ip), vehicle: Klucel (hydroxypropylcellulose) (HPC)): 91 % of control | T/C (dose: 0.2 mg/kg/injection, schedule: Q01DX009 (ip), vehicle: alcohol): 100 % of control | T/C (dose: 0.25 mg/kg/injection, schedule: Q04DX003 (ip), vehicle: saline): 104 % of control | T/C (dose: 0.3 mg/kg/injection, schedule: Q01DX009 (ip), vehicle: alcohol): 108 % of control | T/C (dose: 0.5 mg/kg/injection, schedule: Q01DX009 (ip), vehicle: alcohol): 150 % of control | T/C (dose: 0.5 mg/kg/injection, schedule: Q01DX009 (ip), vehicle: other): 181 % of control | T/C (dose: 0.5 mg/kg/injection, schedule: Q04DX003 (ip), vehicle: saline + alcohol): 155 % of control | T/C (dose: 0.5 mg/kg/injection, schedule: Q04DX003 (ip), vehicle: saline): 117 % of control | T/C (dose: 1.0 mg/kg/injection, schedule: Q01DX009 (ip), vehicle: Klucel (hydroxypropylcellulose) (HPC)): 150 % of control | T/C (dose: 1.0 mg/kg/injection, schedule: Q01DX009 (ip), vehicle: alcohol): 183 % of control | T/C (dose: 1.0 mg/kg/injection, schedule: Q01DX009 (ip), vehicle: other): 181 % of control | T/C (dose: 1.0 mg/kg/injection, schedule: Q04DX003 (ip), vehicle: saline + alcohol): 188 % of control | T/C (dose: 1.65 mg/kg/injection, schedule: Q01DX009 (ip), vehicle: Klucel (hydroxypropylcellulose) (HPC)): 200 % of control | T/C (dose: 1.65 mg/kg/injection, schedule: Q01DX009 (ip), vehicle: saline): 266 % of control | T/C (dose: 2.0 mg/kg/injection, schedule: Q01DX009 (ip), vehicle: alcohol): 237 % of control | T/C (dose: 2.0 mg/kg/injection, schedule: Q01DX009 (ip), vehicle: other): 254 % of control | T/C (dose: 2.0 mg/kg/injection, schedule: Q04DX003 (ip), vehicle: saline + alcohol): 255 % of control | T/C (dose: 2.5 mg/kg/injection, schedule: Q01DX009 (ip), vehicle: Klucel (hydroxypropylcellulose) (HPC)): 257 % of control | T/C (dose: 2.5 mg/kg/injection, schedule: Q01DX009 (ip), vehicle: saline with Tween-80): 240 % of control | T/C (dose: 2.5 mg/kg/injection, schedule: Q01DX009 (ip), vehicle: saline): 333 % of control | T/C (dose: 3.75 mg/kg/injection, schedule: Q01DX009 (ip), vehicle: Klucel (hydroxypropylcellulose) (HPC)): 289 % of control | T/C (dose: 3.75 mg/kg/injection, schedule: Q01DX009 (ip), vehicle: saline): 333 % of control | T/C (dose: 4.0 mg/kg/injection, schedule: Q01DX009 (ip), vehicle: alcohol): 250 % of control | T/C (dose: 4.0 mg/kg/injection, schedule: Q01DX009 (ip), vehicle: other): 272 % of control | T/C (dose: 4.0 mg/kg/injection, schedule: Q04DX003 (ip), vehicle: saline + alcohol): 322 % of control | T/C (dose: 5.0 mg/kg/injection, schedule: Q01DX009 (ip), vehicle: saline with Tween-80): 270 % of control | T/C (dose: 6.25 mg/kg/injection, schedule: Q01DX009 (ip), vehicle: saline): 180 % of control | T/C (dose: 6.25 mg/kg/injection, schedule: Q04DX003 (ip), vehicle: saline + alcohol): 272 % of control | T/C (dose: 10.0 mg/kg/injection, schedule: Q01DX009 (ip), vehicle: saline with Tween-80): 110 % of control | T/C (dose: 12.5 mg/kg/injection, schedule: Q01DX009 (ip), vehicle: saline): 100 % of control | T/C (dose: 12.5 mg/kg/injection, schedule: Q04DX003 (ip), vehicle: saline + alcohol): 272 % of control | T/C (dose: 25.0 mg/kg/injection, schedule: Q04DX003 (ip), vehicle: saline sonified): 90 % of control

COc1ccc(C(=O)C(C)C=O)c(OCc2ccccc2)c1OC (centres undefined)
T/C [1]: 95 % of control | T/C [2]: 104 % of control | T/C [3]: 113 % of control | T/C [4]: 113 % of control | T/C [6]: 90 % of control

CS(=O)(=O)N(CC(=O)O)Cc1ccccc1
T/C (dose: 50.0 mg/kg/injection, schedule: Q04DX003 (ip), vehicle: sodium bicarbonate): 107 % of control | T/C (dose: 100.0 mg/kg/injection, schedule: Q04DX003 (ip), vehicle: sodium bicarbonate): 119 % of control | T/C (dose: 200.0 mg/kg/injection, schedule: Q04DX003 (ip), vehicle: sodium bicarbonate): 103 % of control | T/C (dose: 400.0 mg/kg/injection, schedule: Q04DX003 (ip), vehicle: sodium bicarbonate): 110 % of control

CCCCCCCCCCCC[n+]1ccc(C)cc1C
T/C (dose: 62.0 micrograms/kg/injection, schedule: Q01DX009 (ip), vehicle: saline): 107 % of control | T/C (dose: 125.0 micrograms/kg/injection, schedule: Q01DX009 (ip), vehicle: saline): 102 % of control | T/C (dose: 250.0 micrograms/kg/injection, schedule: Q01DX009 (ip), vehicle: saline): 113 % of control | T/C (dose: 500.0 micrograms/kg/injection, schedule: Q01DX009 (ip), vehicle: saline): 116 % of control
